Test results: publication PMC11676817, “Antiproliferative and Morphological Analysis Triggered by Drugs Contained in the Medicines for Malaria Venture COVID-Box Against Toxoplasma gondii Tachyzoites” (Microorganisms, 2024)
Like-named read-outs stand apart in the source and are kept apart here.

What was measured:
[1] = test system: Toxoplasma gondii tachyzoites of the RH strain; assay: microbe, parasite or virus in culture; settings: 168 h; for inhibition at 1 µM: read-out: Inhibition of tachyzoite proliferation
in vitro = settings: human
[2] = Rat, cited from earlier work; for Cmax: read-out: Plasma concentration (Cmax)
[3] = test system: Toxoplasma gondii tachyzoites of the RH strain; settings: for IC50: 7 days of treatment
[4] = test system: Toxoplasma gondii tachyzoites of the RH strain; assay: microbe, parasite or virus in culture; assay type: cell-based; settings: Toxoplasma gondii; for inhibition at 0.0625 µM / activity at 0.0625 µM: 62.5 nM; for activity at 0.125 µM: 125 nM; for activity at […]: 250 nM
[5] = cited from earlier work
T. gondii tachyzoites [6] = assay: Immunofluorescence microscopy of treated tachyzoites (aberrant cell division, rhoptry morphology); settings: 24 h; for PVs with parasites with aberrant division: IMC1 and DAPI labeling
Method: Rabbit anti-IMC1 (1:1000) and anti-ARO (1:1000) (kindly provided by Dr. Dominique Soldati, Universite de Geneve, Switzerland) were used to label the mother cell and daughter cell pellicles throughout the endodyogeny process and rhoptries, respectively. Mouse anti-SAG1 (1:200; kindly donated by Dr. Tiago Mineo, Universidade Federal de Uberlândia) was used to label the parasite plasma membrane. DAPI (2 µg/mL; Sigma-Aldrich, St. Louis, MO, USA) was used to label the DNA. […] After labeling with antibodies, the coverslips were mounted onto slides using Prolong gold (Life Technologies), and samples were examined on a Zeiss Axio Observer Z1 microscope (Baden-Württemberg, Germany) or Olympus BX60 microscope (Shinjuku City, Tokyo, Japan).

[7] = Cytotoxicity assay in NHDF cells (MTS); settings: human
T. gondii tachyzoites [8] = settings: cited from earlier work
T. gondii tachyzoites [9] = assay: Transmission electron microscopy of treated tachyzoites; assay type: cell-based, Toxoplasma gondii; settings: 48 h
Method: NHDF cultures infected with T. gondii were treated with compounds and fixed with 2.5% glutaraldehyde (EM Grade—Ted Pella Inc., Redding, CA, USA) in 0.1 M sodium cacodylate buffer pH 7.4 (Ted Pella Inc.). Cells were post-fixed with 1% osmium tetroxide, 1.25% potassium ferrocyanide, and 5 mM CaCl2, in 0.1 M sodium cacodylate buffer (pH 7.4). The sample fixation and processing for microscopy were performed as previously described. Samples were dehydrated in alcohol solutions of increasing concentrations (35–100%) and embedded in epoxy resin (Polybed 812, Polysciences). Ultrathin sections were collected in copper grids 300 mesh (Ted Pella Inc.), stained with uranyl acetate and lead citrate, and then observed in a Fei TecNai G2 120 kV Spirit Electron Microscope (FEI Company, Eindhoven, The Netherlands).

[10] = cited from earlier work; remark: listed apart in the source
[11] = published in vivo studies; ref Table S3; cited from earlier work
[12] = Mice/Mouse; ref Table S3 supplementary refs 6, 16, 24, 27, 33; cited from earlier work
[13] = NHDF, read-out: IC50 (μM) in Tachyzoites, RH strain in NHDF cells, plaque assay, 7 days of treatment
[14] = ref Table S3 supplementary refs 3, 10, 12, 21
[15] = ref Table S3 supplementary refs 3, 10, 12, 28, 32
[16] = read-out: IC50 against T. gondii proliferation, RH strain, 7 days of treatment
[17] = 31.2 nM, 24 h of treatment, read-out: Proliferation index (%)
[18] = 24 h, read-out: Inhibition of parasite proliferation
[19] = 24 h of treatment, read-out: Proliferation index (%)
[20] = read-out: IC50 (μM) in Tachyzoites, RH strain in NHDF cells, plaque assay
[21] = read-out: IC50 against T. gondii proliferation, RH strain
[22] = Human, ref Table S3 supplementary refs 1, 4, 8, 11, 13, 15, 17, 18, 19, 23, 31
[23] = read-out: Plasma concentration (Cmax), Human, ref Table S3 supplementary refs 1, 4, 8, 11, 13, 15, 17, 18, 19, 23
[24] = read-out: Plasma concentration (Cmax), Human, ref Table S3 supplementary refs 20, 22, 25, 31

Molecule: O=c1[nH]c2ccccc2n1C1CCN(CCCC(c2ccc(F)cc2)c2ccc(F)cc2)CC1 [Pimozide]
- IC50 [1, 13]: 0.64 ± 0.15 µM

Molecule: COc1cc2c3cc1Oc1c(OC)c(OC)cc4c1[C@@H](Cc1ccc(O)c(c1)Oc1ccc(cc1)C[C@@H]3N(C)CC2)N(C)CC4 [Berbamine]
- IC50 [1, 13]: 0.31 ± 0.03 µM
- CC50 at 7 days (in vitro): 4610 ± 7520 nM
- selectivity ratio at 7 days (in vitro): 15
- Plasma concentration (Cmax) [2, 14]: 32.6 ng/mL
- Cmax [2, 15]: 53.6 nM

Molecule: CC(C)(C)Cn1c(N)nc2ccc(-c3[nH]c(C(C)(C)C)nc3-c3ccc(F)cc3)nc21 [LY2228820]
- IC50 [1, 16]: < 0.1 µM
- IC50 [1, 13]: 0.04 µM

Molecule: C[C@@H]1O[C@@H](O[C@@H]2C=C3CC[C@@H]4[C@H](CC[C@]5(C)[C@@H](c6ccc(=O)oc6)CC[C@]45O)[C@@]3(C)CC2)[C@H](O)[C@H](O)[C@H]1O [proscillaridin, Proscillaridin]
- inhibition at 1 µM [1]: ≥ 70%
- Cytotoxicity for the host cells during the initial screening ([3]; 1 µM, NHDF host cells): signs of cytotoxicity for the host cells

Molecule: C[C@H]1O[C@@H](O[C@H]2[C@@H](O)C[C@H](O[C@H]3[C@@H](O)C[C@H](O[C@H]4CC[C@@]5(C)[C@H](CC[C@@H]6[C@@H]5CC[C@]5(C)[C@@H](C7=CC(=O)OC7)CC[C@]65O)C4)O[C@@H]3C)O[C@@H]2C)C[C@H](O)[C@@H]1O [digitoxin, Digitoxin]
- inhibition at 1 µM [1]: ≥ 70%

Molecule: CC(C)C[C@H](NC(=O)[C@H](Cc1ccccc1)NC(=O)c1cnccn1)B(O)O [Bortezomib]
- inhibition at 0.0312 µM ([4]; 31.2 nM, 24 h, read-out: Inhibition of parasite proliferation): 75 to 80%
- activity at 0.0312 µM [4, 17]: 20.9%
- inhibition at 0.0625 µM [4, 18]: > 90%
- activity at 0.0625 µM [4, 19]: 9.23%
- Cmax ([5]; human, in vivo): 148 nM
- Plasma concentration (Cmax) ([5]; human, in vivo): 56.7 ng/mL
- IC50 [1, 16]: ≤ 0.03 µM
- selectivity ratio at 7 days (in vitro): 24
- PVs with parasites with aberrant division (T. gondii tachyzoites [6]; 31.2 nM): 23.6%
- PVs with parasites with aberrant division (T. gondii tachyzoites [6]; 62.5 nM): 48.0%
- IC50 [3, 20]: 0.03 µM
- IC50 [3, 21]: < 0.03 µM
- CC50 at 7 days [7]: 720 ± 240 nM
- EC50 (T. gondii tachyzoites [8]; 72 h of treatment, ref Cajazeiro et al. (2022) [24], read-out: EC50 against T. gondii): 220 nM
- IC50 (T. gondii tachyzoites [8]; 72 h of treatment, ref [34], read-out: IC50 in tachyzoites of T. gondii): 100 nM
- Effect on T. gondii ultrastructure (TEM) (T. gondii tachyzoites [9]; 62.5 nM): affected the parasite cell division

Molecule: Ivermectin
- Plasma concentration (Cmax) ([10]; Mouse, ref Table S3 supplementary ref 16): 642.3 ng/mL
- Cmax ([10]; read-out: Plasma concentration (Cmax), Mouse/Mice, ref Table S3 supplementary refs 16, 27): 734 nM
- Plasma concentration (Cmax) [5, 22]: 260.5 ng/mL
- Cmax [5, 23]: 298 nM
- Effect on tachyzoite cell division (fluorescence microscopy) (T. gondii tachyzoites [6]; 1 µM): significant cell division arrestment
- Effect on T. gondii ultrastructure (TEM) (T. gondii tachyzoites [9]; 1 µM): induced the formation of myelin-like structures

Molecule: CCc1nc(N)nc(N)c1-c1ccc(Cl)cc1 [Pyrimethamine]
- activity at 0.125 µM [4, 19]: 87.3%
- activity at […] [4, 19]: 56.6%
- activity at 0.5 µM ([4]; 500 nM, 24 h of treatment, read-out: Proliferation index (%)): 39.2%
- activity at 1 µM ([4]; 1000 nM, 24 h of treatment, read-out: Proliferation index (%)): 22%

Molecule: COc1ccc2cc1Oc1ccc(cc1)C[C@H]1c3cc(c(OC)cc3CCN1C)Oc1c(OC)c(OC)cc3c1[C@H](C2)N(C)CC3 [Tetrandrine]
- IC50 [1, 13]: 0.35 ± 0.07 µM
- CC50 at 7 days (in vitro): 4770 ± 8250 nM
- selectivity ratio at 7 days (in vitro): 14
- Plasma concentration (Cmax) ([2]; ref Table S3 supplementary refs 28, 32): 237.10 ng/mL
- Cmax [2, 15]: 381 nM
- Brain availability [11]: confirmed
- Does it cross the blood-brain barrier or is found in the brain? [12]: Yes

Molecule: C[C@H]1c2cccc(O)c2C(=O)C2=C(O)[C@]3(O)C(=O)C(C(N)=O)=C(O)[C@@H](N(C)C)[C@@H]3[C@@H](O)[C@@H]21 [doxycycline, Doxycycline]
- inhibition at 1 µM [1]: ≥ 70%

Molecule: CCC(C)n1ncn(-c2ccc(N3CCN(c4ccc(OCC5COC(Cn6cncn6)(c6ccc(Cl)cc6Cl)O5)cc4)CC3)cc2)c1=O (centres unmarked) [itraconazole, Itraconazole]
- inhibition at 1 µM [1]: ≥ 70%

Molecule: COc1cccc2c1C(=O)c1c(O)c3c(c(O)c1C2=O)C[C@@](O)(C(=O)CO)C[C@@H]3O[C@H]1C[C@H](N)[C@H](O)[C@H](C)O1 [doxorubicin, Doxorubicin]
- inhibition at 1 µM [1]: ≥ 70%

Molecule: O=C(Nc1ccc([N+](=O)[O-])cc1Cl)c1cc(Cl)ccc1O [Niclosamide]
- Plasma concentration (Cmax) ([5]; Human, ref Table S3 supplementary ref 22): 1280 ng/mL
- Cmax [5, 24]: 3900 nM
- IC50 [1, 13]: 0.36 ± 0.02 µM
- selectivity ratio at 7 days (in vitro): 8
- Cmax ([2]; ref Table S3 supplementary refs 21, 29): 1080 nM
- CC50 at 7 days [7]: 3050 ± 80 nM

Molecule: CC[C@H]1CN2CCc3cc(OC)c(OC)cc3[C@@H]2C[C@@H]1C[C@H]1NCCc2cc(OC)c(OC)cc21 [Emetine]
- Plasma concentration (Cmax) [5, 22]: 9.6 ng/mL
- Cmax [5, 23]: 20 nM
- IC50 [1, 16]: < 0.1 µM
- IC50 [1, 13]: 0.05 ± 0.01 µM
- CC50 at 7 days (in vitro): 1020 ± 190 nM

Molecule: COc1c(C)c2c(c(O)c1C/C=C(\C)CCC(=O)O)C(=O)OC2 [Mycophenolic acid]
- activity at 0.125 µM [4, 19]: 61.3%
- inhibition at […] ([4]; 250 nM (0.25 µM), 24 h, read-out: Inhibition of parasite proliferation): 55 to 60%
- activity at […] [4, 19]: 42%
- Plasma concentration (Cmax) ([5]; Human, ref Table S3 supplementary refs 20, 25): 24300 ng/mL
- Cmax [5, 24]: 75800 nM
- IC50 [1, 16]: < 0.1 µM
- IC50 [1, 13]: 0.07 ± 0.01 µM
- selectivity ratio at 7 days (in vitro): 340
- CC50 at 7 days [7]: 23800 ± 32000 nM
- IC50 (T. gondii tachyzoites [8]; 24 h of treatment, ref [23], read-out: IC50 for T. gondii tachyzoites): 211000 nM
- Effect on T. gondii ultrastructure (TEM) (T. gondii tachyzoites [9]; 250 nM): affected the tachyzoites’ division process

Molecule: CCCCc1oc2ccccc2c1C(=O)c1cc(I)c(OCCN(CC)CC)c(I)c1 [amiodarone, Amiodarone]
- Cytotoxicity for the host cells during the initial screening [3]: signs of cytotoxicity for the host cells

Molecule: Cc1ccc(C(=O)Nc2ccc(CN3CCN(C)CC3)c(C(F)(F)F)c2)cc1C#Cc1cnc2cccnn12 [Ponatinib]
- Plasma concentration (Cmax) [5, 22]: 123 ng/mL
- Cmax [5, 23]: 231 nM
- IC50 [1, 13]: 0.33 ± 0.03 µM

Molecule: C[C@@H]1C[C@@H]([C@H](O)CC2CC(=O)NC(=O)C2)C(=O)[C@@H](C)C1 [Cycloheximide]
- activity at 0.0312 µM [4, 17]: 47.9%
- inhibition at 0.0625 µM [4, 18]: 75 to 80%
- activity at 0.0625 µM [4, 19]: 30.5%
- activity at 0.125 µM [4, 19]: 33%
- IC50 [1, 16]: ≤ 0.03 µM
- CC50 at 7 days (in vitro): 6080 ± 4630 nM
- Plasma concentration (Cmax) [2, 14]: 43.1 ng/mL
- Cmax [2, 15]: 153 nM
- IC50 [3, 20]: 0.02 µM
- IC50 [3, 21]: < 0.03 µM
- Effect on T. gondii ultrastructure (TEM) (T. gondii tachyzoites [9]; 62.5 nM): increased endoplasmic reticulum area
- Effect on T. gondii ultrastructure (TEM) (T. gondii tachyzoites [9]; 125 nM): vacuoles containing parasites were completely lysed

Molecule: COC(=O)C1=C(C)NC(C)=C(C(=O)OCCN2CCN(C(c3ccccc3)c3ccccc3)CC2)C1c1cccc([N+](=O)[O-])c1 (centres unmarked) [Manidipine]
- Cmax ([5]; human, in vivo): 9 nM
- Plasma concentration (Cmax) ([5]; human, in vivo): 5.53 ng/mL
- IC50 [1, 13]: 0.74 ± 0.09 µM

Molecule: COc1cc(NC(=O)Nc2cccc(CNC(=O)O[C@H]3CCOC3)c2)ccc1-c1cnco1 [Merimepodib]
- inhibition at […] ([4]; 1.5 µM, 24 h, read-out: Inhibition of parasite proliferation): 55 to 60%
- inhibition at 2 µM ([4]; 2.0 µM, 24 h, read-out: Inhibition of parasite proliferation): 55 to 60%
- Plasma concentration (Cmax) [5, 22]: 1590 ng/mL
- Cmax [5, 23]: 5510 nM
- IC50 [1, 13]: < 0.5 µM
- IC50 [3, 20]: 0.48 ± 0.08 µM
- IC50 (T. gondii tachyzoites [8]; 72 h of treatment, ref [23], read-out: IC50 for T. gondii tachyzoites): 780 nM

Molecule: C[C@H]1O[C@@H](O[C@H]2[C@@H](O)C[C@H](O[C@H]3[C@@H](O)C[C@H](O[C@H]4CC[C@@]5(C)[C@H](CC[C@@H]6[C@@H]5C[C@@H](O)[C@]5(C)[C@@H](C7=CC(=O)OC7)CC[C@]65O)C4)O[C@@H]3C)O[C@@H]2C)C[C@H](O)[C@@H]1O [Digoxin]
- IC50 [1, 16]: ≤ 0.03 µM
- IC50 [1, 13]: 0.03 ± 0.01 µM
- CC50 at 7 days (in vitro): 340 ± 320 nM
